Measured values published in ChEMBL document CHEMBL5131471, “Design, synthesis and mechanism studies of novel dual PARP1/BRD4 inhibitors against pancreatic cancer” (Eur J Med Chem, 2022).
The source made the active and inactive calls. The calls are words filed in the database; no cut-off is given here.

Legend:
SW1990 [1] = assay: Upregulation of BRCA2 expression in human SW1990 cells at 6 uM measured after 4 days by Western blot analysis; assay type: functional, cell-based; conditions: time 4.0 day
Mus musculus [2] = assay: Upregulation of CCNB1 expression in nude mouse xenografted with human SW1990 cells at 45 mg/kg, ip measured after 4 days by Western blot analysis; assay type: functional, organism-based; conditions: time 4.0 day
SW1990 [3] = assay: Effect on MDC1 gene expression in human SW1990 cells at 6 uM by Q-PCR analysis; assay type: functional, cell-based
SW1990 [4] = assay: Upregulation of FOXM1 expression in human SW1990 cells at 6 uM measured after 4 days by Western blot analysis; assay type: functional, cell-based; conditions: time 4.0 day
Mus musculus [5] = assay: Upregulation of E2F2 expression in nude mouse xenografted with human SW1990 cells at 45 mg/kg, ip measured after 4 days by Western blot analysis; assay type: functional, organism-based; conditions: time 4.0 day
SW1990 [6] = assay: Upregulation of ALDH1A1 expression in human SW1990 cells at 6 uM measured after 4 days by Western blot analysis; assay type: functional, cell-based; conditions: time 4.0 day
SW1990 [7] = assay: Effect on E2F2 gene expression in human SW1990 cells at 6 uM by Q-PCR analysis; assay type: functional, cell-based
[8] = Toxicity in nude mouse xenografted with human SW1990 cells assessed as lung damage at 45 mg/kg, ip administered for 28 days by H and E staining based fluorescence microscopic analysis; assay type: organism-based; conditions: in vivo, 672 h, time 28 day
SW1990 [9] = assay: Effect on c-Myc gene expression in human SW1990 cells at 1 uM in presence of Olaparib by Q-PCR analysis; assay type: functional, cell-based
SW1990 [10] = assay: Induction of DNA damage in human SW1990 cells assessed as increase in tail DNA at 1 uM incubated for 4 days in presence of 3 uM Olaparib by comet assay; assay type: functional, cell-based; conditions: time 4.0 day
[11] = Toxicity in nude mouse xenografted with human SW1990 cells assessed as liver damage at 15 mg/kg, ip administered for 28 days in presence of 45 mg/kg Olaparib by H and E staining based fluorescence microscopic analysis; assay type: organism-based; conditions: in vivo, 672 h, time 28 day
SW1990 [12] = assay: Effect on MDC1 gene expression in human SW1990 cells at 1 uM in presence of Olaparib by Q-PCR analysis; assay type: functional, cell-based
SW1990 [13] = assay: Downregulation of Ki67 expression in human SW1990 cells at 15 mg/kg, ip in presence of 45 mg/kg, ip Olaparib measured after 28 days by immuno histochemical staining based fluorescence microscopic analysis; assay type: functional, organism-based; conditions: time 28.0 day
SW1990 [14] = assay: Effect on Rad51 gene expression in human SW1990 cells at 1 uM in presence of Olaparib by Q-PCR analysis; assay type: functional, cell-based
SW1990 [15] = assay: Effect on CCNB1 gene expression in human SW1990 cells at 4 uM by Q-PCR analysis; assay type: functional, cell-based
SW1990 [16] = assay: Induction of apoptosis in human SW1990 cells assessed as late apoptotic cells at 4 uM measured after 4 days by Annexin V-FITC and propidium iodide staining based flow cytometry (reference value: 7.23%); assay type: functional; conditions: time 4 day
SW1990 [17] = assay: Induction of apoptosis in human SW1990 cells assessed as early apoptotic cells at 4 uM measured after 4 days by Annexin V-FITC and propidium iodide staining based flow cytometry (reference value: 1.62%); assay type: functional; conditions: time 4 day
SW1990 [18] = assay: Effect on CDC25A gene expression in human SW1990 cells at 4 uM by Q-PCR analysis; assay type: functional, cell-based
[19] = Toxicity in nude mouse xenografted with human SW1990 cells assessed as spleen damage at 15 mg/kg, ip administered for 28 days in presence of 45 mg/kg Olaparib by H and E staining based fluorescence microscopic analysis; assay type: organism-based; conditions: in vivo, 672 h, time 28 day
Mus musculus [20] = assay: Inhibition of E2F2 expression in nude mouse xenografted with human SW1990 cells at 30 mg/kg, ip measured after 4 days by Q-PCR analysis; assay type: functional, organism-based; conditions: time 4.0 day
SW1990 [21] = assay: Effect on E2F2 gene expression in human SW1990 cells at 1 to 2 uM by Q-PCR analysis; assay type: functional, cell-based; conditions: dose 1-2 µM
Mus musculus [22] = assay: Inhibition of CDK6 expression in nude mouse xenografted with human SW1990 cells at 30 mg/kg, ip measured after 4 days by Q-PCR analysis; assay type: functional, organism-based; conditions: time 4.0 day
SW1990 [23] = assay: Induction of cell cycle arrest in human SW1990 cells assessed as accumulation of cells at S phase at 2 uM incubated for 4 days by propidium iodide staining based flow cytometry (reference value: 29.32%); assay type: functional; conditions: time 4 day
[24] = Toxicity in nude mouse xenografted with human SW1990 cells assessed as spleen damage at 30 mg/kg, ip administered for 28 days by H and E staining based fluorescence microscopic analysis; assay type: organism-based; conditions: in vivo, 672 h, time 28 day
SW1990 [25] = assay: Induction of cell cycle arrest in human SW1990 cells assessed as accumulation of cells at S phase at 1 uM incubated for 4 days by propidium iodide staining based flow cytometry (reference value: 29.32%); assay type: functional; conditions: time 4 day
[26] = Toxicity in nude mouse xenografted with human SW1990 cells assessed as heart damage at 30 mg/kg, ip administered for 28 days by H and E staining based fluorescence microscopic analysis; assay type: organism-based; conditions: in vivo, 672 h, time 28 day
SW1990 [27] = assay: Induction of cell cycle arrest in human SW1990 cells assessed as accumulation of cells at G0/G1 phase at 1 uM incubated for 4 days by propidium iodide staining based flow cytometry (reference value: 64.79%); assay type: functional; conditions: time 4 day
Mus musculus [28] = assay: Inhibition of PARP1 expression in nude mouse xenografted with human […] cells at 30 mg/kg, ip administered for 28 days by Western blot analysis; assay type: functional, organism-based; conditions: time 28.0 day
SW1990 [29] = assay: Effect on c-Myc gene expression in human SW1990 cells at 1 to 2 uM by Q-PCR analysis; assay type: functional, cell-based; conditions: dose 1-2 µM
SW1990 [30] = assay: Effect on Rad51 gene expression in human SW1990 cells at 1 to 2 uM by Q-PCR analysis; assay type: functional, cell-based; conditions: dose 1-2 µM
Mus musculus [31] = assay: Inhibition of homologous recombinant repair in nude mouse xenografted with human SW1990 cells assessed as reversal of olaparib-induced FOXO1 expression at 30 mg/kg, ip measured after 4 days by Western blot analysis; assay type: functional, organism-based; conditions: time 4.0 day
Mus musculus [32] = assay: Inhibition of CCND1 expression in nude mouse xenografted with human SW1990 cells at 30 mg/kg, ip measured after 4 days by Q-PCR analysis; assay type: functional, organism-based; conditions: time 4.0 day
SW1990 [33] = assay: Induction of apoptosis in human SW1990 cells assessed as early apoptotic cells at 2 uM measured after 4 days by Annexin V-FITC and propidium iodide staining based flow cytometry (reference value: 1.62%); assay type: functional; conditions: time 4 day
SW1990 [34] = assay: Inhibition of homologous recombinant repair in human SW1990 cells assessed as reversal of Olaparib-induced TOPBP1 expression at 1 to 2 uM after 4 days by Western blot analysis; assay type: functional, cell-based; conditions: dose 1-2 µM, time 4.0 day
SW1990 [35] = assay: Antitumor activity against human SW1990 cells xenografted in nude mouse assessed as reduction in tumor weight at 30 mg/kg, ip administered for 28 days and measured every 3 days by vernier caliper method; assay type: functional, organism-based; conditions: time 28.0 day
SW1990 [36] = assay: Inhibition of CCND1 protein expression in human SW1990 cells at 1 to 2 uM measured after 4 days by Western blot analysis; assay type: functional, cell-based; conditions: dose 1-2 µM, time 4.0 day
SW1990 [37] = assay: Induction of apoptosis in human SW1990 cells assessed as early apoptotic cells at 1 uM measured after 4 days by Annexin V-FITC and propidium iodide staining based flow cytometry (reference value: 1.62%); assay type: functional; conditions: time 4 day
Mus musculus [38] = assay: Inhibition of CCNB1 expression in nude mouse xenografted with human SW1990 cells at 30 mg/kg, ip measured after 4 days by Western blot analysis; assay type: functional, organism-based; conditions: time 4.0 day

Compound: O=C(c1cc(Cc2n[nH]c(=O)c3ccccc23)ccc1F)N1CCN(C(=O)C2CC2)CC1 [OLAPARIB]
- Activity (SW1990 [1]): Active
- Activity (Mus musculus [2]): Active
- Activity (SW1990 [3]): Active
- Activity (SW1990 [4]): Active
- Activity (Mus musculus [5]): Active
- Activity (SW1990 [6]): Active
- Activity (SW1990 [7]): Active
- Activity [8]: Non-Toxic

Compound: Cc1sc2c(c1C)C(c1ccc(Cl)cc1)=N[C@@H](CC(=O)OC(C)(C)C)c1nnc(C)n1-2
- Activity (SW1990 [9]): Active
- Activity (SW1990 [10]): Active
- Activity [11]: Non-Toxic
- Activity (SW1990 [12]): Active
- Activity (SW1990 [13]): Active
- Activity (SW1990 [14]): Active
- Activity (SW1990 [15]): Active
- Activity (SW1990 [16]): 24.9%
- Activity (SW1990 [17]): 1.73%
- Activity (SW1990 [18]): Active
- Activity [19]: Non-Toxic

Compound: Cc1noc(C)c1-c1ccc2c(c1)C(c1ccccc1)N(Cc1nc3c(C(N)=O)cccc3[nH]1)C(=O)N2C (stereo not drawn)
- inhibition (Mus musculus [20]): Active
- Activity (SW1990 [21]): Active
- inhibition (Mus musculus [22]): Active
- Activity (SW1990 [23]): 9%
- Activity [24]: Non-Toxic
- Activity (SW1990 [25]): 14.98%
- Activity [26]: Non-Toxic
- Activity (SW1990 [27]): 74.9%
- inhibition (Mus musculus [28]): Active
- Activity (SW1990 [29]): Active
- Activity (SW1990 [30]): Active
- inhibition (Mus musculus [31]): Active
- inhibition (Mus musculus [32]): Active
- Activity (SW1990 [33]): 1.06%
- inhibition (SW1990 [34]): Active
- Activity (SW1990 [35]): Active
- inhibition (SW1990 [36]): Active
- Activity (SW1990 [37]): 3.02%
- inhibition (Mus musculus [38]): Active
